The record followed here is publication PMC12627862, “Therapeutic targeting of endothelial calcium signaling accelerates the resolution of lung injury” (Signal Transduction and Targeted Therapy, 2025).

Data set [1] can be described thus: Lipophilicity of peptides, logP(oct/wat). The class given is physicochemical. As for the experimental part:
(§1) The solubilities of the synthesized compounds were determined experimentally (Supplementary Table 2). Most compounds were highly soluble at a 1 mM concentration; however, some compounds tended to form aggregates. These compounds were excluded from further studies. In addition, we experimentally determined the lipophilicity of each compound, logP(oct/wat)=log(soluteoct/solutewat ), which is the partition coefficient of a compound between aqueous (water) and lipophilic (octanol) phases (Supplementary Table 2).
Lipophilicity of peptides. Two separate solutions were obtained: an aqueous phosphate buffer with saturated n-octanol, and an n-octanol solution with saturated phosphate buffer. Peptides were then dissolved and diluted in the phosphate buffer. Different partitions were then made with different n-octanol to water ratio before shaking for an hour at room temperature. The aqueous phase and n-octanol were allowed to equilibrate, and each phase was extracted and analyzed for peptide concentrations. The ratio of peptide concentration in n-octanol to that in water is expressed as log(P).

The target of data set [2] is EB3 interactions with IP3R3-GFP (Homo sapiens, UniProt Q9UPY8). Put plainly: Competitive binding: inhibition of EB3 interaction with IP3R3-GFP in vitro. Format: biochemical. As to conditions: for inhibition at 0.25 µM: 250 nM. From the text: We tested the efficacy of twenty-three compounds in inhibiting EB3 interactions with IP3R3-GFP via an in vitro approach developed by us[12],[13]. […] Guided by NMR studies, we predicted the binding pose of 109 to EB3 via AutoDock Vina[13],[24],[25].

Data set [3] in a line: Aggregation / solubility at 1 mM. The class given is physicochemical. As to conditions: summary calls it solubility at 1mM. As for the experimental part: as §1
Data set [4] deals with CD1 mice, cecal ligation and puncture. Nature of the data set: Polymicrobial sepsis model (CLP). The class given is in vivo, mouse. The settings on record: CLP 18-gauge; monotherapy: VT-109 0.5 µmol/kg bw or enrofloxacin 5 mg/kg bw.

The term logD denotes the decadic logarithm of the distribution of all forms, ionised or not, between an organic phase and buffer at a given pH. Broadly, the inhibition is the relative decrease from the control value, in per cent.

Starred links: 1 amine or outer side, 2 acyl side, 3 side chain; linkers in the order of their positions; H or OH if unused. Positions of bridges follow the written chain, without caps; N, C: chain ends. Non-standard residues stand in square brackets, D forms with d. Residues, ends and D or L forms follow the SMILES beside them. ξ: configuration not given here. X5 = O=C([C@@H]1[C@@H]2CCCC[C@@H]2CN1[*:1])[*:2]; Leu(4,5-dehydro) = C=C(C)C[C@H](N)C(=O)O; X4 = C=C(C)C[C@@H](N[*:1])C(=O)[*:2]; dVal(3-OH) = CC(C)(O)[C@@H](N)C(=O)O; tBuAla = CC(C)(C)C[C@H](N)C(=O)O; R5 = C=CCCC[C@@](C)(N)C(=O)O; 4Amb = NCc1ccc(C(=O)O)cc1; ξP = O=C(O)C1CCCN1

Chain of EB3 interactions with IP3R3-GFP (Q9UPY8 whole entry): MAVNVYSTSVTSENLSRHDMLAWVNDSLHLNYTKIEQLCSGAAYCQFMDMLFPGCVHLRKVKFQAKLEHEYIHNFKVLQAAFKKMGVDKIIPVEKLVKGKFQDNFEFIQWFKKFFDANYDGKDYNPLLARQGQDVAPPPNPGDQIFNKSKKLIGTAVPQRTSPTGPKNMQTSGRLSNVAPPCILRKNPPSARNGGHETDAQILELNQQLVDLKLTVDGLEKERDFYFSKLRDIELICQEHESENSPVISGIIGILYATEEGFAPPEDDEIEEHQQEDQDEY

As to `C=C(C)C[C@H](NC(=O)[C@H](CCC(=O)O)NC(=O)[C@@H](NC(=O)[C@@H](N)Cc1ccccc1)[C@@H](C)O)C(=O)N1CCC[C@H]1C(=O)N[C@H](C(=O)N[C@H](C(=O)O)[C@@H](C)CC)[C@@H](C)O` [compound 019, (S)-4-((2S,3R)-2-((S)-2-amino-3-phenylpropanamido)-3-hydroxybutanamido)-5-(((S)-1-((S)-2-(((2S,3R)-1-(((1S,2S)-1-carboxy-2-methylbutyl)amino)-3-hydroxy-1-oxobutan-2-yl)carbamoyl)pyrrolidin-1-yl)-4-methyl-1-oxopent-4-en-2-yl)amino)-5-oxopentanoic acid] (H-FTE[Leu(4,5-dehydro)]PTI-OH), the logD in data set [1] was -1. The compound further came in with an inhibition at 0.25 µM in data set [2] of 51%. Further, the “Aggregation at 1mM” value in data set [3] is given as “weak signal”.
As to `C=C(C)C[C@H]1NC(=O)[C@](C)(NC(=O)[C@@H](CCC(=O)O)NC(=O)[C@H](N)[C@H](C)O)CCC/C=C\CCC[C@](C)(C(=O)N[C@H](C(=O)O)[C@@H](C)CC)NC(=O)[C@H]([C@@H](C)O)NC(=O)C2CCCN2C1=O` (stereo partly drawn) [compound 052, (4R)-4-((2R,3S)-2-amino-3-hydroxybutanamido)-5-(((3S,6R,15R,18R,Z)-6-(((1S,2S)-1-carboxy-2-methylbutyl)carbamoyl)-3-((R)-1-hydroxyethyl)-6,15-dimethyl-18-(2-methylallyl)-1,4,16,19-tetraoxo-2,3,4,5,6,7,8,9,12,13,14,15,16,17,18,19,21,22,23,23a-icosahydro-1H-pyrrolo[1,2-d][1,4,7,10]tetraazacyclohenicosin-15-yl)amino)-5-oxopentanoic acid] (H-[dT][dE][R5][X4][ξP]T[R5]I-OH; staple (Z) 3-7), the logD in data set [1] was -0.07. In data set [2], this compound had an inhibition at 0.25 µM of 73%. For the same compound, the “Aggregation at 1mM” value in data set [3] came out at 0.17.
Compound `C=C(C)C[C@H](NC(=O)[C@H](CCC(=O)O)NC(=O)[C@H](NC(=O)[C@H](N)Cc1ccccc1)C(C)(C)O)C(=O)N1CCC[C@H]1C(=O)N[C@H](C(=O)N[C@H](C(=O)O)[C@@H](C)CC)[C@@H](C)O` [compound 036, (S)-4-((R)-2-((R)-2-amino-3-phenylpropanamido)-3-hydroxy-3-methylbutanamido)-5-(((S)-1-((S)-2-(((2S,3R)-1-(((1S,2S)-1-carboxy-2-methylbutyl)amino)-3-hydroxy-1-oxobutan-2-yl)carbamoyl)pyrrolidin-1-yl)-4-methyl-1-oxopent-4-en-2-yl)amino)-5-oxopentanoic acid] (H-[dF][dVal(3-OH)]E[Leu(4,5-dehydro)]PTI-OH) displayed a logD in data set [1] of -0.89. The compound further displayed an inhibition at 0.25 µM in data set [2] of 40%. The “Aggregation at 1mM” value in data set [3] is reported as “weak signal”.
In data set [1], `C=C(C)C[C@H](NC(=O)c1ccc(CNC(=O)CC(O)CNC(=O)[C@H](N)Cc2ccccc2)cc1)C(=O)N1[C@H](C(=O)NCC(O)CC(=O)N[C@@H](CC(C)(C)C)C(=O)O)C[C@@H]2CCCC[C@@H]21` (stereo partly drawn) [compound 102, (2S)-2-(4-((2S,3aS,7aS)-1-((2S)-2-(4-((4-((R)-2-amino-3-phenylpropanamido)-3-hydroxybutanamido)methyl)benzamido)-4-methylpent-4-enoyl)octahydro-1H-indole-2-carboxamido)-3-hydroxybutanamido)-4,4-dimethylpentanoic acid.] yielded a logD of 0.2. In data set [2], the “Competitive Binding at 250nM (% Inhibition)” value was “no inhibition”. The “Aggregation at 1mM” value in data set [3] is reported as “weak signal”.
Consider `C=C(C)C[C@H](NC(=O)[C@@H](NC(=O)[C@@H]1CCCN1C(=O)[C@H](CC(C)(C)C)NC(=O)[C@H](CCC(=O)O)NC(=O)[C@H](NC(=O)[C@H](N)Cc1ccccc1)C(C)(C)O)[C@@H](C)O)C(N)=O` [compound 044, (S)-4-((R)-2-((R)-2-amino-3-phenylpropanamido)-3-hydroxy-3-methylbutanamido)-5-(((S)-1-((S)-2-(((2S,3R)-1-(((S)-1-amino-4-methyl-1-oxopent-4-en-2-yl)amino)-3-hydroxy-1-oxobutan-2-yl)carbamoyl)pyrrolidin-1-yl)-4,4-dimethyl-1-oxopentan-2-yl)amino)-5-oxopentanoic acid] (H-[dF][dVal(3-OH)]E[tBuAla]PT[Leu(4,5-dehydro)]-NH2), for which, in data set [1], the logD was -0.59. In data set [2], this compound came in with an inhibition at 0.25 µM of 51%. Also, the “Aggregation at 1mM” value in data set [3] is “weak signal”.
`C=C(C)C[C@H](NC(=O)[C@@H](NC(=O)[C@@H]1CCCN1C(=O)[C@@H](CC(=C)C)NC(=O)[C@H](CCC(=O)O)NC(=O)[C@H](NC(=O)[C@H](N)Cc1ccccc1)C(C)(C)O)[C@@H](C)O)C(=O)O` [compound 049, (S)-2-((2S,3R)-2-((S)-1-((R)-2-((S)-2-((R)-2-((R)-2-amino-3-phenylpropanamido)-3-hydroxy-3-methylbutanamido)-4-carboxybutanamido)-4-methylpent-4-enoyl)pyrrolidine-2-carboxamido)-3-hydroxybutanamido)-4-methylpent-4-enoic acid.] (H-[dF][dVal(3-OH)]E[X4]PT[Leu(4,5-dehydro)]-OH) yielded a logD in data set [1] of -0.71. Testing at 0.25 µM in data set [2] gave an inhibition of 52%.
In turn, `CC[C@H](C)[C@H](NC(=O)[C@@H](NC(=O)[C@@H]1CCCN1C(=O)[C@@H](NC(=O)[C@H](CCC(=O)O)NC(=O)[C@@H](NC(=O)[C@H](N)Cc1ccccc1)[C@@H](C)O)[C@@H](C)CC)[C@@H](C)O)C(=O)O` [compound 004, (S)-4-((2S,3R)-2-((R)-2-amino-3-phenylpropanamido)-3-hydroxybutanamido)-5-(((2S,3S)-1-((S)-2-(((2S,3R)-1-(((1S,2S)-1-carboxy-2-methylbutyl)amino)-3-hydroxy-1-oxobutan-2-yl)carbamoyl)pyrrolidin-1-yl)-3-methyl-1-oxopentan-2-yl)amino)-5-oxopentanoic acid] (H-[dF]TEIPTI-OH) came in with a logD in data set [1] of -0.81. Also, in data set [2], at 0.25 µM the inhibition was 39%. Besides, in data set [3], the “Aggregation at 1mM” value worked out at 0.35.
`CC[C@H](C)[C@H](NC(=O)[C@@H](NC(=O)[C@@H]1CCCN1C(=O)[C@@H](NC(=O)c1ccc(CNC(=O)[C@H](NC(=O)[C@@H](N)Cc2ccccc2)C(C)(C)O)cc1)[C@@H](C)CC)[C@@H](C)O)C(=O)O` [compound 021, (4-(((R)-2-((S)-2-amino-3-phenylpropanamido)-3-hydroxy-3-methylbutanamido)methyl)benzoyl)-L-isoleucyl-L-prolyl-L-threonyl-L-isoleucine] (H-F[dVal(3-OH)][4Amb]IPTI-OH) returned a logD in data set [1] of -0.24. Further, in data set [2], the inhibition at 0.25 µM worked out at 35%. In addition, the “Aggregation at 1mM” value in data set [3] was “weak signal”.
With `CCN1CCN(c2cc3c(cc2F)c(=O)c(C(=O)O)cn3C2CC2)CC1` [enrofloxacin, reference compound], the survival result in data set [4] is reported as “neither antibiotics nor VT-109 monotherapy (0.5 µmol/kg bw) significantly improved survival”.
With `CC[C@H](C)[C@@H]1NC(=O)[C@H]([C@@H](C)O)NC(=O)[C@@H]2CCCN2C(=O)[C@H]([C@@H](C)CC)NC(=O)[C@H](CCC(=O)O)NC(=O)[C@H]([C@@H](C)O)NC(=O)[C@H](Cc2ccccc2)NC(=O)CNC(=O)CNC(=O)[C@H]([C@@H](C)O)NC(=O)CC[C@@H](C(=O)O)NC(=O)[C@@H]2CCCN2C(=O)[C@H](CC(C)C)NC1=O` [compound 013, (6S,9S,12S,15S,24S,29S,31aS,37S,40S,43S,45aS)-15-benzyl-6,40-di((S)-sec-butyl)-9-(2-carboxyethyl)-12,24,43-tris((R)-1-hydroxyethyl)-37-isobutyl-5,8,11,14,17,20,23,26,31,36,39,42,45-tridecaoxotetratetracontahydro-5H-dipyrrolo[2,1-c:2',1'-o][1,4,7,10,13,16,19,22,25,28,31,34,37]tridecaazacyclohentetracontine-29-carboxylic acid] (TGGFTEIPTILPE-OH; lactam N-13), the logD in data set [1] was -0.27. The same compound gave an inhibition at 0.25 µM in data set [2] of 51%.
The matching figures for `CC[C@H](C)[C@H](NC(=O)[C@H](NC(=O)[C@@H]1[C@@H]2CCCC[C@@H]2CN1C(=O)[C@H](CC(C)(C)C)NC(=O)[C@H](CCC(=O)O)NC(=O)[C@H](NC(=O)[C@@H](N)Cc1ccccc1)C(C)(C)O)C(C)(C)O)C(=O)O` [compound 040, (S)-4-((R)-2-((S)-2-amino-3-phenylpropanamido)-3-hydroxy-3-methylbutanamido)-5-(((S)-1-((1S,3aS,7aR)-1-(((R)-1-(((1S,2S)-1-carboxy-2-methylbutyl)amino)-3-hydroxy-3-methyl-1-oxobutan-2-yl)carbamoyl)octahydro-2H-isoindol-2-yl)-4,4-dimethyl-1-oxopentan-2-yl)amino)-5-oxopentanoic acid.] (H-F[dVal(3-OH)]E[tBuAla][X5][dVal(3-OH)]I-OH): 0.67 and 50%.
Compound `CC[C@H](C)[C@@H]1NC(=O)[C@H]([C@@H](C)O)NC(=O)[C@@H]2CCCN2C(=O)[C@H]([C@@H](C)CC)NC(=O)[C@H](CCC(=O)O)NC(=O)[C@H]([C@@H](C)O)NC(=O)[C@H](Cc2ccccc2)NC1=O` [compound 012, 3-((3S,6S,9S,12S,15S,18S,23aS)-9-benzyl-6,18-di((S)-sec-butyl)-3,12-bis((R)-1-hydroxyethyl)-1,4,7,10,13,16,19-heptaoxodocosahydro-1H-pyrrolo[1,2-a][1,4,7,10,13,16,19]heptaazacyclohenicosin-15-yl)propanoic acid.] (cyclo(EIPTIFT)) registered a logD in data set [1] of -0.04. In data set [2], this compound had an inhibition at 0.25 µM of 49%.
